Data as given in patent US10670605B2, “Cysteine reactive probes and uses thereof” (The Scripps Research Institute, priority 2015, dated 2020).

What was measured:
Assay in all cases: Competitive isoTOP-ABPP in situ (fragment-treated cells)
Format in all cases: cell-based
[1] = target: T1, cysteines in MDA-MB-231 and Ramos cells (Homo sapiens, UniProt O14929)
T1 sequence (O14929 1-419): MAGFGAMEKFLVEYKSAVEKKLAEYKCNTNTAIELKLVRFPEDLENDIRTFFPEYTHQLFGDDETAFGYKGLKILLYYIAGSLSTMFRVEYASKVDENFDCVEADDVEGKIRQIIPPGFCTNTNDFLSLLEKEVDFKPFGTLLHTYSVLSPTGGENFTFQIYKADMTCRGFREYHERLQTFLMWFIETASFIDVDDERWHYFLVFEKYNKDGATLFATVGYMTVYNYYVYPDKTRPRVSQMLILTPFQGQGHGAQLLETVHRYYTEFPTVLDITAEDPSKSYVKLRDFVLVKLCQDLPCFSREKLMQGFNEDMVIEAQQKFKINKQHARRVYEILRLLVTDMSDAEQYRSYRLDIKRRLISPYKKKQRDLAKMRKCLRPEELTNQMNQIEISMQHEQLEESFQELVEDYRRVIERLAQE

[2] = target: cysteines in MDA-MB-231 and Ramos cells (Homo sapiens, UniProt P45984)
cysteines in MDA-MB-231 and Ramos cells (Homo sapiens, UniProt P45984), sequence (P45984 whole entry): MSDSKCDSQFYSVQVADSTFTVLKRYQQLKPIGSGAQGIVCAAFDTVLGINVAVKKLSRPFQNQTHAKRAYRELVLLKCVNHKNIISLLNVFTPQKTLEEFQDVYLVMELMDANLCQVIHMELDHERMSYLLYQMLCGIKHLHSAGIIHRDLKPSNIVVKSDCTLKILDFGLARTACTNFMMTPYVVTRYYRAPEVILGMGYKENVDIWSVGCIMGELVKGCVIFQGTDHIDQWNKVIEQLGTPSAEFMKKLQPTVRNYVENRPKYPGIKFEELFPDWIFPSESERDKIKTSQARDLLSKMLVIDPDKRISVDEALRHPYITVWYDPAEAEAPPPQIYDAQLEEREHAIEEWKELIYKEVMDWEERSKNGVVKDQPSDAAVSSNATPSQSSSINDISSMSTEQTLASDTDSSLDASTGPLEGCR

[3] = target: cysteines in MDA-MB-231 and Ramos cells (Homo sapiens, UniProt P68366)
cysteines in MDA-MB-231 and Ramos cells (Homo sapiens, UniProt P68366), sequence (P68366 whole entry): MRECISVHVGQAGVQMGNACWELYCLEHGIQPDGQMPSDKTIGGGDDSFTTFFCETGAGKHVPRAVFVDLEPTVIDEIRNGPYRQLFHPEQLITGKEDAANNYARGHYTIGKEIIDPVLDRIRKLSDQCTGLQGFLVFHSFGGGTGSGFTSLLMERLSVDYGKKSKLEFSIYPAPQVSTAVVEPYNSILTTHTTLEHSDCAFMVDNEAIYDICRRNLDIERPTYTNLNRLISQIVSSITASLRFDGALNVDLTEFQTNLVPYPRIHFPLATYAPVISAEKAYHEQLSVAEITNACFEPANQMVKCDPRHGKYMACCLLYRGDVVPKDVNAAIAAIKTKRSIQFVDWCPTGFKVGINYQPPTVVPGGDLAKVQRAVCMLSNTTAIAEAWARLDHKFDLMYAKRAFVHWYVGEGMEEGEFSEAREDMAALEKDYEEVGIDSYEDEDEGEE

[4] = target: T2, cysteines in MDA-MB-231 and Ramos cells (Homo sapiens, UniProt Q15345)
T2 sequence (Q15345 1-812): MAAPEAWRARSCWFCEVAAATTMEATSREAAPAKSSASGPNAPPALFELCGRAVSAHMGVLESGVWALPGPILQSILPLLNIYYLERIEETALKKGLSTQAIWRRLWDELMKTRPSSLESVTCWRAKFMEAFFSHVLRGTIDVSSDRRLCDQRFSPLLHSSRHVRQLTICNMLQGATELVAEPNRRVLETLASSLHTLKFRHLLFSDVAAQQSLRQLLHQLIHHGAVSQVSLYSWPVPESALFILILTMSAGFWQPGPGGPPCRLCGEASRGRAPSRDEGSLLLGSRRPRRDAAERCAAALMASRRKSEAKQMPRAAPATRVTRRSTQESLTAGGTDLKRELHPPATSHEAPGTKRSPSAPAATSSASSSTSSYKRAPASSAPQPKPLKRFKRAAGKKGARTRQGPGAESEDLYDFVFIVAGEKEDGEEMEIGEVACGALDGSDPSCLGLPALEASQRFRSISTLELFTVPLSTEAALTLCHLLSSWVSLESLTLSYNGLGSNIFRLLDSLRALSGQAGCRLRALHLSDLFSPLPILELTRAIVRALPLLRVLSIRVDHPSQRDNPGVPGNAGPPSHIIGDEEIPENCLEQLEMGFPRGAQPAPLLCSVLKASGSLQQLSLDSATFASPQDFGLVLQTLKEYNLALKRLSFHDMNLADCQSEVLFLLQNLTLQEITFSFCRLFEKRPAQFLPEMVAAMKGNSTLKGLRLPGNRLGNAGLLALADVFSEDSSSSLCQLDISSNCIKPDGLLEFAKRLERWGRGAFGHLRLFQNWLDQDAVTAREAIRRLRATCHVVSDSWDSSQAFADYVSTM

[5] = target: cysteines in MDA-MB-231 and Ramos cells (Homo sapiens, UniProt Q5MNZ6)
cysteines in MDA-MB-231 and Ramos cells (Homo sapiens, UniProt Q5MNZ6), sequence (Q5MNZ6 whole entry): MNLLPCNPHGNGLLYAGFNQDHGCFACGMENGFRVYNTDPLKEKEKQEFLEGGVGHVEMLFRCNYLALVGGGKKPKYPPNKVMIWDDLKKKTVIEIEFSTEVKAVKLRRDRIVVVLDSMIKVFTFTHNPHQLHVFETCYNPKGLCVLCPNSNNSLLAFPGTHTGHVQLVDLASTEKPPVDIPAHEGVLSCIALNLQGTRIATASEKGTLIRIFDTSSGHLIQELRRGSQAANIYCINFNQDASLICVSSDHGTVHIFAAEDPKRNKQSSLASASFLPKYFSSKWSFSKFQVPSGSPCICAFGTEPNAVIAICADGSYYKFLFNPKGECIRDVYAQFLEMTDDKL

[6] = target: T3, cysteines in MDA-MB-231 and Ramos cells (Homo sapiens, UniProt Q8WVV9)
T3 sequence (Q8WVV9 1-542): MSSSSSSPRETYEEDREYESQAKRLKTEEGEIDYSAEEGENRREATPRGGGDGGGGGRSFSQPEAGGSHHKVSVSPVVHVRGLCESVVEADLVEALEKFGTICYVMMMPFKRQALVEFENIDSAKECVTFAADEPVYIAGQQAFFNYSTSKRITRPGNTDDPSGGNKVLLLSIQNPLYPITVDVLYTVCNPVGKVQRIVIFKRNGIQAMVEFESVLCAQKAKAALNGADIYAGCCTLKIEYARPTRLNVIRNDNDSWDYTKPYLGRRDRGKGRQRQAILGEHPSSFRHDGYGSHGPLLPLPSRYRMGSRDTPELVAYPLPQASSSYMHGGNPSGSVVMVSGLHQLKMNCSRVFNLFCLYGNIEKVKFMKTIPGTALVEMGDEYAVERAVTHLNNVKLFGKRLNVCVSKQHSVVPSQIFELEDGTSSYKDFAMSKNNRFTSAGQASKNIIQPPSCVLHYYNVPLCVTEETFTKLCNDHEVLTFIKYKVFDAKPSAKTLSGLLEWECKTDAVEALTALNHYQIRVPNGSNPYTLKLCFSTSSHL

[7] = target: T4, cysteines in MDA-MB-231 and Ramos cells (Homo sapiens, UniProt O14733); settings: 200 μM, insitu
T4 sequence (O14733 1-419): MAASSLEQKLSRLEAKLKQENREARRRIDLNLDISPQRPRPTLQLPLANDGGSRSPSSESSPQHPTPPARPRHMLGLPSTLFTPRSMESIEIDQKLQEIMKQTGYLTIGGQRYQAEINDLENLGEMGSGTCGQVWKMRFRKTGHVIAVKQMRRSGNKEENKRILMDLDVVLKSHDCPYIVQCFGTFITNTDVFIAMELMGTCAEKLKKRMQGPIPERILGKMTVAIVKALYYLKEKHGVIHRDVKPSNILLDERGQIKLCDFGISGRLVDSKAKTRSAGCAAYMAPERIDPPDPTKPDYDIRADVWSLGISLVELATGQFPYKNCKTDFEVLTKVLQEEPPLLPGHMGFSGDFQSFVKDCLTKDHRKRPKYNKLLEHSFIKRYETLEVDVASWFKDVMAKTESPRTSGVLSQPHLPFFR

[8] = target: cysteines in MDA-MB-231 and Ramos cells (Homo sapiens, UniProt P46109); settings: 200 μM, insitu
cysteines in MDA-MB-231 and Ramos cells (Homo sapiens, UniProt P46109), sequence (P46109 whole entry): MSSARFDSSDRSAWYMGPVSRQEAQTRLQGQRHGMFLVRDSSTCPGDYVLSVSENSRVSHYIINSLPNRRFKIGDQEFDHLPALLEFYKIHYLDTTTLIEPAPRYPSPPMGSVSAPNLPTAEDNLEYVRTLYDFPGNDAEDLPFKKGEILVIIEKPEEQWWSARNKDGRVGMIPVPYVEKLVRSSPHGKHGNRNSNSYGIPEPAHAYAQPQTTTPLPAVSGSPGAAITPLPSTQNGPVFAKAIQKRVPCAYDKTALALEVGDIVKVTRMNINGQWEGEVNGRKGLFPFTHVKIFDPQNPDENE

[9] = target: cysteines in MDA-MB-231 and Ramos cells (Homo sapiens, UniProt Q14790); settings: 200 μM, insitu, 231
cysteines in MDA-MB-231 and Ramos cells (Homo sapiens, UniProt Q14790), sequence (Q14790 217-479): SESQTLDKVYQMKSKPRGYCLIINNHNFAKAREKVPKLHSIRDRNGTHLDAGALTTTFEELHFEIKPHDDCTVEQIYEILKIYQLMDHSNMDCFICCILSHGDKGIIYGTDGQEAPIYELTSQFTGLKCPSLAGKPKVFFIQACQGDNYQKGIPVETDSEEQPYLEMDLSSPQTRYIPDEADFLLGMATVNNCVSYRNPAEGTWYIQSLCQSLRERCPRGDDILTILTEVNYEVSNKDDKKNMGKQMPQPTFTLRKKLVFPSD

[10] = target: T5, cysteines in MDA-MB-231 and Ramos cells (Homo sapiens, UniProt Q9NRW3); settings: 200 μM, insitu, 231
T5 sequence (Q9NRW3 1-190): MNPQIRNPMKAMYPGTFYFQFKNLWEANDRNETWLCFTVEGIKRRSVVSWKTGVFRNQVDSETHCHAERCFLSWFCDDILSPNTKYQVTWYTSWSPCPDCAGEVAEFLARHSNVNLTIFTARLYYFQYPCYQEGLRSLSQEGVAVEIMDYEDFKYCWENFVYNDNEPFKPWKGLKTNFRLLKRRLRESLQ

Row | isoTOP-ABPP ratio O14929_C101 ([1]; 200 μM, insitu, 231) | isoTOP-ABPP ratio P68366_C54 ([3]; 200 μM, insitu, ramos) | isoTOP-ABPP ratio Q14790_C360 [9] | isoTOP-ABPP ratio, cysteine Q15345_C297 ([4]; 200 μM, insitu, 231) | isoTOP-ABPP ratio Q5MNZ6_C63 ([5]; 200 μM, insitu, 231) | isoTOP-ABPP ratio P46109_C249 [8]; 231 | isoTOP-ABPP ratio P68366_C54 ([3]; 200 μM, insitu, 231) | isoTOP-ABPP ratio Q15345_C297 ([4]; 200 μM, insitu, 231) | isoTOP-ABPP ratio O14733_C131 [7]; 231 | other results | SMILES
1 | – | – | – | – | – | – | – | – | – | isoTOP-ABPP ratio O14929_C101 ([1]; 100 μM in situ 231): 0.8; isoTOP-ABPP ratio P45984_C177 ([2]; 100 μM in situ 231): 0.9; isoTOP-ABPP ratio P68366_C54 ([3]; 100 μM in situ 231): 0.3; isoTOP-ABPP ratio, cysteine Q15345_C297 ([4]; 100 μM in situ 231): 1.1; isoTOP-ABPP ratio Q5MNZ6_C63 ([5]; 100 μM in situ 231): 0.9; isoTOP-ABPP ratio, cysteine Q8WVV9_C464 ([6]; 100 μM in situ 231): 0.9 | Cn1cc(S(=O)(=O)N2CCOCC2)cc1C(=O)NC(=O)CCl [compound 11]
2 | 0.9 | 1.3 | 1.2 | 1.6 | 1.1 | – | – | – | – | isoTOP-ABPP ratio, cysteine O14733_C131 ([7]; ramos): 1.6; isoTOP-ABPP ratio O14929_C101 ([1]; 200 μM, insitu, ramos): 1.2; isoTOP-ABPP ratio P46109_C249 ([8]; ramos): 1.8 | O=C(CCl)NCCc1c[nH]c2ccccc12 [compound 13]
3 | 1.2 | – | 0.9 | 1.1 | 0.8 | 0.9 | 0.8 | – | – | isoTOP-ABPP ratio, cysteine O14733_C131 [7]; 231: 0.7; isoTOP-ABPP ratio, cysteine Q8WVV9_C464 ([6]; 200 μM, insitu, 231): 1.4; isoTOP-ABPP ratio, cysteine Q9NRW3_C130 [10]: 1.3 | O=C(CCl)NC12CC3CC(CC(C3)C1)C2 [compound 21]
4 | – | 1.1 | 0.5 | – | – | – | – | 0.9 | – | – | C=CC(=O)N(Cc1cccnc1)c1cc(C(F)(F)F)cc(C(F)(F)F)c1 [compound 31]
5 | 1.1 | – | 1.0 | – | – | 1.6 | 2.0 | 1.4 | 20.0 | isoTOP-ABPP ratio Q8WVV9_C464 ([6]; 200 μM, insitu, 231): 1.5 | C=CC(=O)Nc1cc(F)c(N2CCN(C(=O)OC(C)(C)C)CC2)c(F)c1 [compound 38]
6 | 0.6 | – | 0.5 | – | 0.8 | – | – | 0.8 | 0.8 | isoTOP-ABPP ratio P45984_C177 ([2]; 200 μM, insitu, 231): 0.5; isoTOP-ABPP ratio Q9NRW3_C130 [10]: 0.9 | Cc1ccc(C=C(C#N)C(=O)NCCN2CCOCC2)cc1 [compound 41]
